Laboratory results reported in patent publication US20190125896A1, “ANTI-INFECTIVE COMPOSITIONS COMPRISING PHYTOGLYCOGEN NANOPARTICLES” (MIREXUS BIOTECHNOLOGIES INC., priority 2016, published 2019).
In brackets after ≈: the same amount, converted by molar mass.

How the values were obtained:
[1] = test system: P. aeruginosa PAO1 biofilm; test: Biofilm formation at sub-MIC tobramycin; format: cell-based, Pseudomonas aeruginosa; conditions: non-supplemented medium
Description: The potential for cationized phytoglycogen to limit enhanced biofilm formation at sub-MIC concentrations of the aminoglycoside tobramycin was assessed in sterile 96 well polystyrene plates. P. aeruginosa PAO1 stocks were revived by sub-culturing P. aeruginosa PAO1 in Mueller-Hinton broth (Oxoid; Fisher Scientific, Canada) and grown for 20-22 h (37° C., 150 rpm). Sterile solutions of gamma-irradiated cationized phytoglycogen was prepared by reconstitution and dilution as required in sterile Mueller-Hinton broth. […] The inoculum was prepared immediately prior to use by diluting in sterile Mueller-Hinton broth, with a final in-assay cell density of 5×10^5 CFU.ml^−1. Plates were incubated statically at 37° C. At 20 h, biofilms were stained and quantitated according to the previously described protocol (Example 23). Experiments were done in quadruplicate replicate and repeated three times (n=12).

P. aeruginosa PAO1 = test: Sensitization to antibiotics: MIC in medium supplemented with phytoglycogen; format: cell-based, Pseudomonas aeruginosa; conditions: P. aeruginosa
Description: MIC assays as defined in Example 15 were performed in sterile and untreated 96 well microtitre plates according to the broth micro-dilution technique described in either the Clinical and Laboratory Standards Institute document M07-A9: Methods for Dilution Antimicrobial Susceptibility Tests for Bacteria that Grow Aerobically; Approved Standard and document M27-A2 Reference Method for Broth Dilution Antifungal Susceptibility Testing of Yeasts; Approved Standard—Second Edition, with the exception that, where indicated, medium was additionally supplemented with native or cationized phytoglycogen. Assessments done using C. utilis ATCC9950, B. subtilis 168 and E. coli AB264 employed native or cationized phytoglycogen at concentrations ⅛, ¼, ½ their respective MIC values for cationized phytoglycogen. Assessments of the opportunistic pathogen P. aeruginosa PAO1 were made at final in-assay concentrations of 0.5, 1 or 10 mg native or cationized phytoglycogen.ml^−1. Experiments were performed as in-assay duplicates, and were repeated a minimum of three times (n=6).
MIC assays were performed in duplicate within each experiment and were repeated a minimum three times to confirm the data (n=6). MIC values with a four-fold or greater change relative to the non-supplemented medium MIC represent a statistically-significant change in MIC value. Only those antibiotic-cationized phytoglycogen combinations which caused a four-fold change relative to the non-supplemented medium MIC were deemed as indicative of resulting in potentiation (MIC value was less), or tolerance (MIC value increased).

[2] = test system: P. aeruginosa PAO1 biofilm; test: Biofilm eradication: 20 h biofilms treated with antibiotic and cationized phytoglycogen; format: cell-based, Pseudomonas aeruginosa; conditions: 24 h, medium alone
Description: Biofilm growth and treatments were performed in sterile 96 well polystyrene plates. Sterile solutions of gamma-irradiated cationized phytoglycogen was prepared by reconstitution and dilution as required in sterile Mueller-Hinton broth. P. aeruginosa PAO1 stocks were revived by sub-culturing P. aeruginosa PAO1 (37° C., 150 rpm, 16-18 h) in Mueller-Hinton broth (Oxoid; Fisher Scientific, Canada). The inoculum was prepared immediately prior to use by diluting in sterile Mueller-Hinton broth to a final in-assay cell density of 5×10^5 CFU.ml^−1. 100 μl of this solution was transferred to wells and incubated (37° C., 150 rpm). Sterile broth was the negative growth control. At 20 h, plates were transferred to a biological safety cabinet, well contents were gently aspirated and the wells rinsed with sterile 0.9% (wt/vol) NaCl. […] Positive growth controls contained inoculated medium, non-supplemented or with 1 or 10 mg cationized phytoglycogen.ml^−1. Plates were incubated at 37° C. for a further 24 h, after which biofilms were quantitated as previously described. Experiments were done in quadruplicate replicate and repeated three times (n=12).

[3] = test system: Pseudomonas aeruginosa PAO1; test: MIC broth micro-dilution; format: cell-based; conditions: P. aeruginosa PAO1, Mueller-Hinton broth, read-out: MIC value established empirically
Description: Minimum inhibitory concentration (MIC) assays were done to evaluate antibacterial properties of cationized phytoglycogen. The MIC is defined as “the lowest concentration of an anti-infective agent that prevents visible growth of a micro-organism in an agar or broth dilution susceptibility test”.
MIC assessments against bacteria were performed following broth micro-dilution in accordance with the Clinical and Laboratory Standards Institute document M07-A9: Methods for Dilution Antimicrobial Susceptibility Tests for Bacteria that Grow Aerobically; Approved Standard. A Gram-positive organism, Bacillus subtilis 168, and two Gram-negative organisms, Escherichia coli AB264 (K-12) and Pseudomonas aeruginosa PAO1 were assessed. Long-term stock cultures of organisms were maintained at −80° C. in glycerol (15% vol/vol). Stocks were revived by sub-culturing onto trypticase soy agar plates, grown for 18 hrs at 37° C. and then stored at 4° C. for up to one week. Overnight cultures were grown by inoculating Mueller-Hinton broth with 3-4 colonies from stock plates and incubating for 20-24 hrs at 37° C. and 150 rpm. […] Plates were incubated at 37° C. for 20 h, at which points wells were scored for growth. […] Cationized phytoglycogen, prepared according to the alternative procedure detailed in Example 3, was also assessed in double-dilution increments from 19 to 10 000 μg.ml^−1. […]

NC[C@H]1O[C@H](O[C@H]2[C@H](O)[C@@H](O[C@H]3O[C@H](CO)[C@@H](O)[C@H](N)[C@H]3O)[C@H](N)C[C@@H]2N)[C@H](N)C[C@@H]1O [tobramycin] was tested, and the “factor of biofilm accumulation relative to the medium only control” value ([1]; tobramycin at % -MIC) was 1.5, the “factor of biofilm accumulation relative to the medium only control” value ([1]; tobramycin at ¼-MIC) was 1.33 and the “factor of biofilm accumulation relative to the medium only control” value ([1]; tobramycin at ½-MIC) was over 2.00. For the same compound, the “↓ Fold-change in MIC (cationized phytoglycogen) MIC.5 mg/ml” value (P. aeruginosa PAO1; 0.5 mg cationized phytoglycogen · ml^−1 Mueller-Hinton Broth) was 2 fold, the “↓ Fold-change in MIC (cationized phytoglycogen) MIC1 mg/ml” value (P. aeruginosa PAO1; 1 mg cationized phytoglycogen · ml^−1 Mueller-Hinton Broth) was 2 fold and the “↓ Fold-change in MIC (cationized phytoglycogen) MIC10 mg/ml” value (P. aeruginosa PAO1; 10 mg cationized phytoglycogen · ml^−1 Mueller-Hinton Broth) was 1 fold. The MIC (P. aeruginosa PAO1; Pseudomonas aeruginosa, PAO1, non-supplemented Mueller-Hinton Broth, read-out: MIC) was 0.25 µg/mL, the “change in biofilm of 20 h biofilms” value ([2]; 0.125 to 2 times the MIC) was “net increase in biofilm proliferation” and the “reduction of biofilm relative to the initial biofilm” value ([2]; four-fold the MIC) was 40%. The MIC [3] was 0.4 µg/mL (≈ 0.856 µM).
